Consider 21 compounds from ChEMBL document CHEMBL4145495, “Development of novel oxazolo[5,4-d]pyrimidines as competitive CB2 neutral antagonists based on scaffold hopping” (Eur J Med Chem, 2018).

The nature of data set [1]: Cytotoxicity against wild-type CHO cells assessed as cell growth inhibition at 10 uM after 72 hrs by MTS assay. It is filed as cell-based, Cricetulus griseus. The conditions noted are these: chinese hamster, read-out: GI. Background: Formazan colour is commonly taken as a measure of viable cells.
Data set [2] is described as follows: Cytotoxicity against CB2-expressing CHO cells assessed as cell growth inhibition at 10 uM after 72 hrs by MTS assay. Type of data set: cell-based, Cricetulus griseus. The settings on record: chinese hamster, read-out: GI.
The nature of data set [3]: Cytotoxicity against human HT-29 cells assessed as cell growth inhibition at 10 uM after 72 hrs by MTS assay. It is filed as cell-based. The conditions noted are these: read-out: GI.
A short description of data set [4]: Intrinsic clearance in CD1 mouse liver microsomes at 1 uM up to 40 mins by UPLC-MS/MS analysis. It is filed as ADME, microsome. The settings on record: read-out: CLH. For orientation: Liver microsomes are vesicles of endoplasmic reticulum, rich in cytochrome P450 enzymes.
Data set [5] can be described thus: Half life in CD1 mouse liver microsomes at 1 uM up to 40 mins by UPLC-MS/MS analysis. It is filed as ADME, microsome.
Another data set concerns the target Cannabinoid receptor 1 (Homo sapiens, UniProt P21554). The data set can be described thus: Displacement of [3H]-CP-55940 from human CB1 expressed in CHO cells after 90 mins by TopCount scintillation counting method. It is filed as cell-based. Background: Loss of bound radioactivity is the signal in a displacement assay; it reports binding, not function.
Data set [6] deals with T1, Cannabinoid receptor 2 (Homo sapiens, UniProt P34972). The data set can be described thus: Displacement of [3H]-CP-55940 from human CB2 expressed in CHO cells after 90 mins by TopCount scintillation counting method. It is filed as cell-based.
T1 sequence (P34972 whole entry): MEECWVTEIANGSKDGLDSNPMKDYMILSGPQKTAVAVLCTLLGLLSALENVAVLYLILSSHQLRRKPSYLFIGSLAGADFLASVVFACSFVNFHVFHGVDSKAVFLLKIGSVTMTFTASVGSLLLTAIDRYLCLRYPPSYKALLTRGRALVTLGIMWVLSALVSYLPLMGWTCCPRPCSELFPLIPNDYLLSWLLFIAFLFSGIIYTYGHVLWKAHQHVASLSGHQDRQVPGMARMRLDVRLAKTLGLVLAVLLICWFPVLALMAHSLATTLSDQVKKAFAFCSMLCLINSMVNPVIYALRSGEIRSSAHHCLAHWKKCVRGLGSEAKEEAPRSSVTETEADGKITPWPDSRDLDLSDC
The species entered for a further data set is Homo sapiens. The data set is described as follows: Selectivity index, ratio of Ki for human CB1 to Ki for human CB2.
Data set [7] can be described thus: Intrinsic clearance in CD1 mouse liver microsomes at 200 nM up to 40 mins by UPLC-MS/MS analysis. Type of data set: ADME, microsome. The conditions noted are these: read-out: CLH.
Data set [8] in a line: Half life in CD1 mouse liver microsomes at 200 nM up to 40 mins by UPLC-MS/MS analysis. It is filed as ADME, microsome.
Data set [9] has as its target T1, Cannabinoid receptor 2. The data set can be described thus: Neutral antagonist activity at human CB2 assessed as inhibition of WIN552122-induced suppression of cAMP formation preincubated for 15 mins followed by forskolin addition for 30 mins measured after 1 hr by HTRF assay. Type of data set: functional.
Data set [10] addresses T1, Cannabinoid receptor 2. The data set is described as follows: Neutral antagonist activity at human CB2 assessed as restoration of forskolin-induced cAMP formation preincubated for 15 mins followed by forskolin addition for 30 mins measured after 1 hr by HTRF assay. Type of data set: functional.

Cannabinoid receptor 1, sequence (P21554 whole entry): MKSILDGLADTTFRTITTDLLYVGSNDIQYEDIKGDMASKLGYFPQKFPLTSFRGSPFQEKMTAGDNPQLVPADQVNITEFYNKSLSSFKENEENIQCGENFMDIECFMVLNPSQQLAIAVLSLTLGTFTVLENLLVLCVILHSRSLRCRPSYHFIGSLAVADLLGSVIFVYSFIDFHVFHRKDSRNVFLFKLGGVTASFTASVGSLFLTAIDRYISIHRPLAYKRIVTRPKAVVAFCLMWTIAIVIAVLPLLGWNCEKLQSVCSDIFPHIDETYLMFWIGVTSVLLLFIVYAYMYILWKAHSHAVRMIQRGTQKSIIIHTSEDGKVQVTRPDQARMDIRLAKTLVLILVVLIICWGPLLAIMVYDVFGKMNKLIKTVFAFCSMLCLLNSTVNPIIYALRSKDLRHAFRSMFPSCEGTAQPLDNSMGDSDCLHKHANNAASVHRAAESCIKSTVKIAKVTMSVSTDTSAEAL

In general, half-life refers to how long it takes for the measured level to halve. Low values mean fast loss, high ones slow loss. As to `CCN1CCN(c2nc(C)nc3[nH]c(-c4ccccc4Cl)nc23)CC1`, the figures for the inhibition at 72 h, 10 µM in data set [1], in data set [2] and in data set [3] were 30%, 0% and 0%, respectively. In addition, the microsomal CLint at 1 µM in data set [4] amounted to 54 µL/min/mg. The compound further returned a half-life at 1 µM in data set [5] of 44 min.

Broadly, the Ki is the dissociation constant of the complex between target and ligand, obtained from inhibition or displacement. High values mean a looser hold on the target, low ones a stronger hold on the target. For the compound `CN1CCN(c2ncnc3oc(-c4ccccc4Cl)nc23)CC1`, the figures for the Ki at Cannabinoid receptor 1 and at Cannabinoid receptor 2 [6] were over 1 µM and 0.35 µM, respectively. Also, in the data set listed under Homo sapiens, the Ratio Ki was over 2.8. Further, the inhibition at 72 h, 10 µM was determined as 0% in [1], 0% in data set [2] and 8% in data set [3]. Moreover, the microsomal CLint at 0.2 µM in [7] is 1180 µL/min/mg. In [8], the half-life at 0.2 µM was 1.3 min.

`CN1CCN(c2ncnc3oc(-c4ccccc4F)nc23)CC1`: the inhibitory constant (Ki) at Cannabinoid receptor 1 and on Cannabinoid receptor 2 [6] was over 1 µM in each case. The figures for the inhibition at 72 h, 10 µM in data set [1], in [2] and in [3] were 8%, 7% and 0%, respectively.

As for `CC(=O)N1CCN(c2ncnc3oc(-c4ccccc4C(F)(F)F)nc23)CC1`, the results for the Ki at Cannabinoid receptor 1 and on Cannabinoid receptor 2 [6] were over 1 µM and 0.254 µM, respectively. Also, the Ratio Ki in the data set listed under Homo sapiens was over 3.9. The inhibition at 72 h, 10 µM in [1] was 12%; in data set [2], 1%; in [3], 12%. Besides, in data set [4], the microsomal CLint at 1 µM came out at 174 µL/min/mg. This compound registered a half-life at 1 µM in data set [5] of 12.5 min.

As for `CN1CCN(c2ncnc3oc(-c4ccccc4)nc23)CC1`, the Ki at Cannabinoid receptor 1 and on Cannabinoid receptor 2 [6] was over 1 µM each time. The inhibition at 72 h, 10 µM in [1], in data set [2] and in data set [3] was 0% in each case.

For the compound `CCN1CCN(c2ncnc3oc(-c4ccccc4Cl)nc23)CC1`, the inhibitory constant (Ki) at Cannabinoid receptor 1 is over 1 µM; at Cannabinoid receptor 2 [6], 0.329 µM. Further, in the data set filed under Homo sapiens, the Ratio Ki is over 3. Besides, the inhibition at 72 h, 10 µM in data set [1] was 1%; in [2], 9%; in data set [3] it was 4%. Besides, the microsomal CLint at 1 µM in data set [4] stood at 1100 µL/min/mg. For the same compound, the half-life at 1 µM in [5] was determined as 1.2 min.

With `Clc1ccccc1-c1nc2c(N3CCOCC3)ncnc2o1`, the inhibition constant Ki on Cannabinoid receptor 1 and at Cannabinoid receptor 2 [6] was over 1 µM each time. The inhibition at 72 h, 10 µM in [1] was 0%; in data set [2] it was 10%; in data set [3] it was 5%.

In the case of `CCCCCNc1ncnc2oc(-c3ccccc3Cl)nc12`, the Ki at Cannabinoid receptor 1 and on Cannabinoid receptor 2 [6] was over 1 µM throughout. Moreover, the results for the inhibition at 72 h, 10 µM in [1], in data set [2] and in data set [3] were 6%, 13% and 10%, respectively.

As to `Clc1ccccc1-c1nc2c(NCC3CCNCC3)ncnc2o1`, the inhibitory constant (Ki) on Cannabinoid receptor 1 and at Cannabinoid receptor 2 [6] was over 1 µM in each case. The inhibition at 72 h, 10 µM in data set [1] turned out to be 0%; in [2], 9%; in data set [3] it was 41%.

Turning to `CN1CCN(c2ncnc3oc(-c4ccccc4C(F)(F)F)nc23)CC1`, the inhibitory constant (Ki) at Cannabinoid receptor 1 was over 1 µM; at Cannabinoid receptor 2 [6], 0.155 µM. Further, the Ratio Ki in the data set listed under Homo sapiens is over 6.4. Further, the results for the inhibition at 72 h, 10 µM in [1], in data set [2] and in [3] were 3%, 0% and 0%, respectively. Further, the microsomal CLint at 1 µM in data set [4] was found to be 1260 µL/min/mg. The half-life at 1 µM in [5] was found to be 0.9 min.

As usually defined, the IC50 is the point on the concentration scale where inhibition reaches its midpoint. Regarding `CCN1CCN(c2nc(C)nc3oc(-c4ccccc4Cl)nc23)CC1`, the inhibition constant Ki turned out to be 0.293 µM on Cannabinoid receptor 1 and 0.023 µM at Cannabinoid receptor 2 [6]. In addition, the Ratio Ki in the data set filed under Homo sapiens is 12.7. The inhibition at 72 h, 10 µM in data set [1] came to 0%; in data set [2] it was 16%; in data set [3], 16%. For the same compound, the microsomal CLint at 1 µM in data set [4] was determined as 263 µL/min/mg. Further, the half-life at 1 µM in data set [5] was 8.1 min. For the same compound, the 50% inhibitory concentration (IC50) at Cannabinoid receptor 2 [9] and at Cannabinoid receptor 2 [10] was 0.12 µM in each case.

For the compound `CCCCNc1ncnc2oc(-c3ccccc3Cl)nc12`, the inhibition constant Ki on Cannabinoid receptor 1 and at Cannabinoid receptor 2 [6] was over 1 µM in each case. The inhibition at 72 h, 10 µM stood at 0% in data set [1], 18% in data set [2] and 0% in data set [3].

On to `Clc1ccccc1-c1nc2c(NCC3CCCCC3)ncnc2o1`, for which the Ki at Cannabinoid receptor 1 and on Cannabinoid receptor 2 [6] was over 1 µM each time. Moreover, the inhibition at 72 h, 10 µM amounted to 0% in [1], 10% in data set [2] and 0% in data set [3].

In the case of `CCN1CCN(c2ncnc3oc(-c4ccccc4F)nc23)CC1`, the inhibition constant Ki on Cannabinoid receptor 1 and at Cannabinoid receptor 2 [6] was over 1 µM throughout. The inhibition at 72 h, 10 µM was 10% in data set [1], 8% in data set [2] and 24% in [3].

With `CCN1CCN(c2ncnc3oc(-c4ccccc4)nc23)CC1`, the Ki at Cannabinoid receptor 1 and at Cannabinoid receptor 2 [6] was over 1 µM in each case. The inhibition at 72 h, 10 µM in data set [1], in [2] and in data set [3] was 0% in each case.

On to `CC(=O)N1CCN(c2ncnc3oc(-c4ccccc4Cl)nc23)CC1`, for which the Ki is over 1 µM on Cannabinoid receptor 1 and 0.678 µM at Cannabinoid receptor 2 [6]. In the data set filed under Homo sapiens, the Ratio Ki is over 1.4. Also, the inhibition at 72 h, 10 µM came out at 23% in data set [1], 11% in data set [2] and 0% in data set [3]. For the same compound, in data set [7], the microsomal CLint at 0.2 µM was 194 µL/min/mg. Moreover, the half-life at 0.2 µM in [8] amounted to 12.2 min.

As for `Cc1nc(N2CCN(C)CC2)c2nc(-c3ccccc3Cl)oc2n1`, the inhibition constant (Ki) at Cannabinoid receptor 1 is over 1 µM; at Cannabinoid receptor 2 [6], 0.0275 µM. Besides, the Ratio Ki in the data set filed under Homo sapiens is over 36.3. For the same compound, the inhibition at 72 h, 10 µM in [1] turned out to be 0%; in [2], 4%; in data set [3] it was 24%. The microsomal CLint at 1 µM in data set [4] turned out to be 502 µL/min/mg. The compound also registered a half-life at 1 µM in data set [5] of 4.1 min. The IC50 at Cannabinoid receptor 2 [9] and on Cannabinoid receptor 2 [10] was 0.93 µM throughout.

In the case of `COc1ccc(C(=O)c2c(C)n(CCN3CCOCC3)c3cc(I)ccc23)cc1`, the Ki on Cannabinoid receptor 2 [6] amounted to 0.091 µM. Moreover, the inhibition at 72 h, 10 µM in [1], in data set [2] and in [3] was 0% throughout.

As for `CCN1CCN(c2ncnc3oc(-c4ccccc4C(F)(F)F)nc23)CC1`, the inhibition constant Ki was over 1 µM on Cannabinoid receptor 1 and 0.0955 µM on Cannabinoid receptor 2 [6]. The Ratio Ki in the data set listed under Homo sapiens was over 10.4. In addition, the inhibition at 72 h, 10 µM in [1] is 10%; in data set [2], 5%; in [3] it was 1%. Further, the microsomal CLint at 1 µM in [4] is 1240 µL/min/mg. The half-life at 1 µM in data set [5] came out at 1 min.

For the compound `CCCN1CCN(c2ncnc3oc(-c4ccccc4Cl)nc23)CC1`, the Ki at Cannabinoid receptor 1 and at Cannabinoid receptor 2 [6] was over 1 µM in each case. Besides, the inhibition at 72 h, 10 µM was 0% in data set [1], 2% in [2] and 0% in data set [3].

Regarding `COCCNc1ncnc2oc(-c3ccccc3Cl)nc12`, the Ki on Cannabinoid receptor 1 and on Cannabinoid receptor 2 [6] was over 1 µM throughout. For the same compound, the inhibition at 72 h, 10 µM in [1], in data set [2] and in data set [3] was 0% in each case.
